In assay [1] the target is T1, human mAChRM1 (Homo sapiens, UniProt P11229).
T1 construct: host or cells: CHO-K1
T1 sequence (P11229 1-460): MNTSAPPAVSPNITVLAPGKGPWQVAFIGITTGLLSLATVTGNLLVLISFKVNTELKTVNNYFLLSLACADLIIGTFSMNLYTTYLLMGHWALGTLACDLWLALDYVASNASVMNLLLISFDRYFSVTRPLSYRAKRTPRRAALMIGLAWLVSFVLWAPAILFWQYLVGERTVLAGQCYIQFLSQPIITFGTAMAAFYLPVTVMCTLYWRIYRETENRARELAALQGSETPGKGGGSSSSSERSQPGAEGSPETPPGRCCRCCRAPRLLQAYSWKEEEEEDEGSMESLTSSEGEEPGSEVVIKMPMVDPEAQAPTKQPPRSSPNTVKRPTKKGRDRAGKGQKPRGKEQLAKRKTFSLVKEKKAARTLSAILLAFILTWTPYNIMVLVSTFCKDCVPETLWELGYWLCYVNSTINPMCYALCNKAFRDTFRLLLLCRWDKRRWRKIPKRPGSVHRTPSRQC
In words: mAChR M1 cell-based functional assay (calcium mobilization), positive allosteric modulator activity: increase in the EC20 acetylcholine response. The following applies: for Emax: PAM mode; for EC50: increase in the EC20 acetylcholine response, read-out: PAM Activity Human M1 EC50. A digest of the protocol: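 CHO-K1 cells stably expressing human M1, loaded with Fluo-4 AM; calcium flux recorded on FDSS at 1 Hz over 300 s following compound addition. PAM activity is the concentration-dependent increase of an EC20 acetylcholine response; EC50 and Emax from four-parameter logistic fits of 11-point, 1:3 concentration series.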
(Calcium assays in cells follow changes in intracellular calcium, usually with a dye or a luminescent sensor.)

In assay [2] the target is T1, human mAChRM1. In words: mAChR M1 cell-based functional assay (calcium mobilization), agonist activity upon compound addition, Emax relative to acetylcholine maximum. The settings on record: for Agonist Activity Human M1 EC50 / EC50: calcium mobilization upon compound addition; for Emax: relative to the maximum for acetylcholine. A digest of the protocol: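 CHO-K1 cells stably expressing human M1 were loaded with Fluo-4 AM for 50 min at 37 °C. Compound was added 4 s into a 300 s FDSS read at 1 Hz, over 11-point 1:3 dilution curves. Agonism was taken as a concentration-dependent rise in calcium fluorescence ratio, with Emax expressed relative to the acetylcholine maximum from four-parameter logistic fits.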

Where only a bound is given, the exact number is not on record here.

What is called Emax is the greatest response seen or fitted, relative to the assay's reference. For orientation: EC50 means the concentration giving half of the maximal effect. With `Cn1cc2c(-c3cnc(CN4Cc5ncccc5C4=O)cn3)ccc(C(C)(C)O)c2n1` [Compound 109, 6-((5-(7-(2-hydroxypropan-2-yl)-2-methyl-2H-indazol-4-yl)pyrazin-2-yl)methyl)-6,7-dihydro-5H-pyrrolo[3,4-b]pyridin-5-one], in assay [1], the Emax was 70% and the EC50 is at least 10 µM. In addition, in assay [2], the “Agonist Activity Human M1 EC50” value is “inactive”.

`Cn1cc2c(-c3cnc(CN4Cc5ncccc5C4=O)nc3)ccc(C(C)(C)O)c2n1` [Compound 110, 6-[[5-[7-(1-Hydroxy-1-methyl-ethyl)-2-methyl-indazol-4-yl]pyrimidin-2-yl]methyl]-7H-pyrrolo[3,4-b]pyridin-5-one]: in assay [1], the Emax worked out at 43% and the EC50 was at least 10 µM. Besides, the “Agonist Activity Human M1 EC50” value in assay [2] is “inactive”.

For the compound `Cn1cc2c(-c3ncc(CN4Cc5ncccc5C4=O)cn3)ccc(C(C)(C)O)c2n1` [Compound 111, 6-((2-(7-(2-hydroxypropan-2-yl)-2-methyl-2H-indazol-4-yl)pyrimidin-5-yl)methyl)-6,7-dihydro-5H-pyrrolo[3,4-b]pyridin-5-one], in assay [1], the Emax turned out to be 47% and the EC50 was at least 10 µM. The “Agonist Activity Human M1 EC50” value in assay [2] is “inactive”.

As to `Cn1cc2c(-c3ccc(CN4Cc5ncccc5C4=O)nn3)ccc(C(C)(C)O)c2n1` [Compound 112, 6-((6-(7-(2-hydroxypropan-2-yl)-2-methyl-2H-indazol-4-yl)pyridazin-3-yl)methyl)-6,7-dihydro-5H-pyrrolo[3,4-b]pyridin-5-one], in assay [1], the Emax is 27% and the 50% effective concentration (EC50) is at least 10 µM. Also, in assay [2], the “Agonist Activity Human M1 EC50” value is “inactive”.

Take `Cn1cc2c(-c3cc(F)c(CN4Cc5ncccc5C4=O)c(F)c3)ccc(C3(O)CN(C(=O)OC(C)(C)C)C3)c2n1` [Compound 113, tert-butyl 3-(4-(3,5-difluoro-4-((5-oxo-5,7-dihydro-6H-pyrrolo[3,4-b]pyridin-6-yl)methyl)phenyl)-2-methyl-2H-indazol-7-yl)-3-hydroxyazetidine-1-carboxylate]: in assay [1], the Emax was 76% and the EC50 amounted to 0.856 µM. Further, in assay [2], the EC50 was at least 10 µM and the Emax is 13%.

As to `Cn1cc2c(-c3cc(F)c(CN4Cc5ncccc5C4=O)c(F)c3)ccc(C3(O)CNC3)c2n1` [Compound 114, 6-(2,6-Difluoro-4-(7-(3-hydroxyazetidin-3-yl)-2-methyl-2H-indazol-4-yl)benzyl)-6,7-dihydro-5H-pyrrolo[3,4-b]pyridin-5-one], in assay [1], the Emax was found to be 56% and the EC50 is at least 10 µM. The “Agonist Activity Human M1 EC50” value in assay [2] was “inactive”.

`Cc1nc2c(-c3cc(F)c(CN4Cc5ncccc5C4=O)c(F)c3)ccc(C(C)(C)O)n2n1` [Compound 115, 6-(2,6-difluoro-4-(5-(2-hydroxypropan-2-yl)-2-methyl-[1,2,4]triazolo[1,5-a]pyridin-8-yl)benzyl)-6,7-dihydro-5H-pyrrolo[3,4-b]pyridin-5-one]: in assay [1], the maximal response (Emax) came to 89% and the EC50 is 0.531 µM. In assay [2], the 50% effective concentration (EC50) was 8 µM and the Emax came to 29%.

For `COc1cc(-c2ccc(C(C)(C)O)c3nn(C)cc23)cc(F)c1CN1Cc2cccnc2C1=O` [Compound 116, 6-(2-fluoro-4-(7-(2-hydroxypropan-2-yl)-2-methyl-2H-indazol-4-yl)-6-methoxybenzyl)-5,6-dihydro-7H-pyrrolo[3,4-b]pyridin-7-one], in assay [1], the Emax turned out to be 88% and the half-maximal effective concentration (EC50) amounted to 0.233 µM. In assay [2], the EC50 is at least 10 µM and the Emax was 17%.

Turning to `CC(C)(O)c1ccc(-c2cc(F)c(CN3Cc4cccnc4C3=O)c(F)c2)cc1` [Compound 117, 6-((3,5-difluoro-4′-(2-hydroxypropan-2-yl)-[1,1′-biphenyl]-4-yl)methyl)-5,6-dihydro-7H-pyrrolo[3,4-b]pyridin-7-one], in assay [1], the Emax was 68% and the EC50 was 1.45 µM. Further, the “Agonist Activity Human M1 EC50” value in assay [2] was “inactive”.

`COc1cc(-c2ccc(C(C)(C)O)cc2)cc(F)c1CN1Cc2cccnc2C1=O` [Compound 119, 6-((3-fluoro-4′-(2-hydroxypropan-2-yl)-5-methoxy-[1,1′-biphenyl]-4-yl)methyl)-5,6-dihydro-7H-pyrrolo[3,4-b]pyridin-7-one]: in assay [1], the Emax was determined as 58% and the EC50 was at least 10 µM. In assay [2], the “Agonist Activity Human M1 EC50” value was “inactive”.

For `CC(C)(O)c1ccc(-c2cc(F)c(CN3Cc4cccnc4C3=O)c(Cl)c2)cc1` [Compound 120, 6-((3-chloro-5-fluoro-4′-(2-hydroxypropan-2-yl)-[1,1′-biphenyl]-4-yl)methyl)-5,6-dihydro-7H-pyrrolo[3,4-b]pyridin-7-one], in assay [1], the Emax worked out at 66% and the EC50 is 3.7 µM. For the same compound, the “Agonist Activity Human M1 EC50” value in assay [2] is “inactive”.

As for `Cn1cc2c(-c3cc(F)c(CN4Cc5cccnc5C4=O)c(F)c3)ccc(C(C)(C)O)c2n1` [Compound 121, 6-(2,6-difluoro-4-(7-(2-hydroxypropan-2-yl)-2-methyl-2H-indazol-4-yl)benzyl)-5,6-dihydro-7H-pyrrolo[3,4-b]pyridin-7-one], in assay [1], the Emax amounted to 88% and the EC50 turned out to be 0.201 µM. Also, in assay [2], the EC50 is at least 10 µM and the maximum response (Emax) was determined as 22%.

Consider `Cn1cc2c(-c3cc(F)c(CN4Cc5cccnc5C4=O)c(Cl)c3)ccc(C(C)(C)O)c2n1` [Compound 122, 6-(2-Chloro-6-fluoro-4-(7-(2-hydroxypropan-2-yl)-2-methyl-2H-indazol-4-yl)benzyl)-5,6-dihydro-7H-pyrrolo[3,4-b]pyridin-7-one], for which, in assay [1], the Emax was found to be 86% and the EC50 was determined as 0.231 µM. Moreover, in assay [2], the concentration for a half-maximal effect (EC50) is at least 10 µM and the Emax worked out at 20%.

`Cc1cc(-c2ccc(C(C)(C)O)c3nn(C)cc23)cc(F)c1CN1Cc2cccnc2C1=O` [Compound 123, 6-(2-fluoro-4-(7-(2-hydroxypropan-2-yl)-2-methyl-2H-indazol-4-yl)-6-methylbenzyl)-5,6-dihydro-7H-pyrrolo[3,4-b]pyridin-7-one]: in assay [1], the Emax is 84% and the EC50 worked out at 0.124 µM. For the same compound, in assay [2], the EC50 is at least 10 µM and the Emax came to 34%.

On to `Cn1cc2c(-c3cnc(CN4Cc5cccnc5C4=O)c(F)c3)ccc(C(C)(C)O)c2n1` [Compound 124, 6-((3-fluoro-5-(7-(2-hydroxypropan-2-yl)-2-methyl-2H-indazol-4-yl)pyridin-2-yl)methyl)-5,6-dihydro-7H-pyrrolo[3,4-b]pyridin-7-one], for which, in assay [1], the Emax turned out to be 84% and the EC50 was found to be 1.87 µM. Further, the “Agonist Activity Human M1 EC50” value in assay [2] is “inactive”.

With `CN(C)c1cc(-c2ccc(C(C)(C)O)c3nn(C)cc23)cc(F)c1CN1Cc2cccnc2C1=O` [Compound 125, 6-(2-(dimethylamino)-6-fluoro-4-(7-(2-hydroxypropan-2-yl)-2-methyl-2H-indazol-4-yl)benzyl)-5,6-dihydro-7H-pyrrolo[3,4-b]pyridin-7-one], in assay [1], the Emax is 77% and the EC50 was at least 10 µM. The “Agonist Activity Human M1 EC50” value in assay [2] was “inactive”.

With `COCCOc1cc(-c2ccc(C(C)(C)O)c3nn(C)cc23)cc(F)c1CN1Cc2cccnc2C1=O` [Compound 126, 6-(2-fluoro-4-(7-(2-hydroxypropan-2-yl)-2-methyl-2H-indazol-4-yl)-6-(2-methoxyethoxy)benzyl)-5,6-dihydro-7H-pyrrolo[3,4-b]pyridin-7-one], in assay [1], the Emax was determined as 83% and the concentration giving a half-maximal response (EC50) is 0.061 µM. In assay [2], the concentration giving a half-maximal response (EC50) was found to be 3.73 µM and the Emax was 54%.

Turning to `CC(C)(O)c1ccc(-c2ccc(CN3Cc4cccnc4C3=O)c(F)c2)cc1` [Compound 127, 6-((3-fluoro-4′-(2-hydroxypropan-2-yl)-[1,1′-biphenyl]-4-yl)methyl)-5,6-dihydro-7H-pyrrolo[3,4-b]pyridin-7-one], in assay [1], the maximum response (Emax) was determined as 81% and the EC50 was 4.53 µM. Moreover, the “Agonist Activity Human M1 EC50” value in assay [2] was “inactive”.

In the case of `CC(C)(O)c1ccc(-c2ccc(CN3Cc4cccnc4C3=O)cc2)cc1` [Compound 128, 6-((4′-(2-hydroxypropan-2-yl)-[1,1′-biphenyl]-4-yl)methyl)-5,6-dihydro-7H-pyrrolo[3,4-b]pyridin-7-one], in assay [1], the maximal response (Emax) was 57% and the EC50 stood at 7.14 µM. The “Agonist Activity Human M1 EC50” value in assay [2] was “inactive”.

As for `Cc1cc(-c2ccc(C(C)(C)O)cc2)ccc1CN1Cc2cccnc2C1=O` [Compound 129, 6-((4′-(2-hydroxypropan-2-yl)-3-methyl-[1,1′-biphenyl]-4-yl)methyl)-5,6-dihydro-7H-pyrrolo[3,4-b]pyridin-7-one], in assay [1], the Emax was found to be 65% and the EC50 is at least 10 µM. For the same compound, the “Agonist Activity Human M1 EC50” value in assay [2] was “inactive”.

For the origin of these results see patent US20260138978A1, “POSITIVE ALLOSTERIC MODULATORS OF THE MUSCARINIC ACETYLCHOLINE RECEPTOR M1” (Vanderbilt University, priority 2022, published 2026).
